Data reported in patent US20260241049A1, “Radiopharmaceutical Compositions Targeting Glypican-3 and Uses Thereof” (RayzeBio, Inc., priority 2023, published 2026).
Starred links: 1 amine or outer side, 2 acyl side, 3 side chain; linkers in the order of their positions; H or OH if unused. Positions of bridges follow the written chain, without caps; N, C: chain ends. Non-standard residues stand in square brackets, D forms with d. Residues, ends and D or L forms follow the SMILES beside them. Groups on a side chain read outwards from the residue. Primed or numbered codes have the meaning given here. *: point of attachment. MeHseMe(3) = N-methyl-O-methyl-homoserine, 4-methoxy-2-(methylamino)butanoic acid, COCC[C@@H](C(=O)[*:2])N(C)[*:1]; DOTA‑Lu″ = DOTA chelate of lutetium (175Lu), attached as an amide to the side-chain amine; Phe(4-(1-Me-pyrazol-4-yl)) = Cn1cc(-c2ccc(C[C@H](N)C(=O)O)cc2)cn1; NMeAla(isoquinolin-7-yl) = CN[C@@H](Cc1ccc2ccncc2c1)C(=O)O; DOTA = O=C(O)CN1CCN(CC(=O)O)CCN(CC(=O)*)CCN(CC(=O)O)CC1; CH2CON(CH2CH2)2NCH2COOH = O=C(O)CN1CCN(C(=O)C*)CC1; Phe(4-CH2COOH) = N[C@@H](Cc1ccc(CC(=O)O)cc1)C(=O)O; 3Pal(6-Ph) = N[C@@H](Cc1ccc(-c2ccccc2)nc1)C(=O)O; Phe(4-COOH) = N[C@@H](Cc1ccc(C(=O)O)cc1)C(=O)O; Phe(4-CH2NH2) = NCc1ccc(C[C@H](N)C(=O)O)cc1; Piperazinyl(4-CH2COOH) = O=C(O)CN1CCN(*)CC1; NMe2Nal = CN[C@@H](Cc1ccc2ccccc2c1)C(=O)O; NMeI = CC[C@H](C)[C@H](NC)C(=O)O; NMeQ = CN[C@@H](CCC(N)=O)C(=O)O; NMehSer = CN[C@@H](CCO)C(=O)O; NMeK = CN[C@@H](CCCCN)C(=O)O; NMeC = CN[C@@H](CS)C(=O)O; Carboxymethyl = O=C(O)C*; NMeA = CN[C@@H](C)C(=O)O; CO = O=C([*:1])[*:2]

B1: Macrocyclic peptide of Example 2-23 (SEQ ID No. 43) (peptide)
peptide: {CH2CO}-[NMeA][NMeQ]D[NMeQ][Phe(4-COOH)]II[Phe(4-COOH)][NMe2Nal]G[3Pal(6-Ph)][NMeC]-NH2
modifications: thioether N-12
SMILES: CC[C@H](C)[C@@H]1NC(=O)[C@H](Cc2ccc(C(=O)O)cc2)NC(=O)[C@H](CCC(N)=O)N(C)C(=O)[C@H](CC(=O)O)NC(=O)[C@H](CCC(N)=O)N(C)C(=O)[C@H](C)N(C)C(=O)CSC[C@@H](C(N)=O)N(C)C(=O)[C@H](Cc2ccc(-c3ccccc3)nc2)NC(=O)CNC(=O)[C@H](Cc2ccc3ccccc3c2)N(C)C(=O)[C@H](Cc2ccc(C(=O)O)cc2)NC(=O)[C@H]([C@@H](C)CC)NC1=O

These molecules were tested against Human Glypican3-Fc (Homo sapiens, UniProt P51654) (assay: SPR binding to Glypican-3, Method B-2 (Glypican3-Fc captured by anti-human IgG (Fc) antibody on CM3 chip)). Details: SPR method B-2.
Protocol: (§1) A CM3 sensor chip (Cytiva) was inserted into a Biacore T200 (Cytiva), primed three times with a running buffer: HBS-P-+, pH 7.4 (Cytiva), and equilibrated at a flow rate of 30 μL/min. Using the Anti-Fc Capture Kit (Cytiva), 50 LL each of 60 mM EDC solution (Cytiva) and 650 mM NHS solution (Cytiva) were mixed, and then reacted at a flow rate of 10 μL/min for 420 seconds, 150 μL of […] Anti-human IgG (Fc) Antibody solution was prepared by diluting with 10 mM acetic acid solution (pH 5.0), reacted at a flow rate of 10 μL/min for 420 seconds, and immobilized on a CM3 sensor chip. After immobilization, 1.0 M ethanolamine aqueous solution (Cytiva) was allowed to react for 420 seconds at a flow rate of 10 μL/min for capping. Human Glypican3-Fc (ACRO Biosystems, GP3-H5258) was allowed to react for 60 seconds at a flow rate of 10 μL/min. After capturing human Glypican3-Fc, a peptide solution prepared to 10 mM in DMSO solution was diluted with a running buffer to a final concentration of 10 μM. After that, 5 serial dilution series (100 nM, 50 nM, 25 nM, 10 nM, 5 nM) of peptide solutions were prepared. Using the above samples, peptide kinetics for Glypican3 was obtained by SPR measurement. Kinetics evaluation of Glypican3 was performed by SPR measurements at a flow rate of 10 μL/min. setting the association time to 120 seconds and the disassociation time to 600 seconds.
The obtained data by Method B-1, Method B-2, Method B-3 and Method B-4 were analyzed by follow. Single Cycle Kinetics was used as the kinetics evaluation model, and curve fitting was performed using Biacore T200 Evaluation Software Version 3.0 (Cytiva). The obtained sensorgram was subjected to curve fitting by the method of least squares and obtained KD values of the macrocyclic peptides in this disclosure for Glypican 3 protein are shown in Table 18.

| Molecule | Kd [nM] |
| --- | --- |
| CC[C@H](C)[C@@H]1NC(=O)[C@H](Cc2ccc(C(=O)O)cc2)NC(=O)[C@H](CCC(N)=O)N(C)C(=O)[C@H](CC(=O)O)NC(=O)[C@H]([C@@H](C)CC)N(C)C(=O)[C@H](CCCCNC(=O)[C@H](Cc2c[nH]cn2)NC(=O)CN2CCN(CC(=O)O)CCN(CC(=O)O)CCN(CC(=O)O)CC2)N(C)C(=O)CSC[C@@H](C(N)=O)N(C)C(=O)[C@H](Cc2ccc(-c3ccccc3)nc2)NC(=O)CNC(=O)[C@H](Cc2ccc3ccncc3c2)N(C)C(=O)[C@H](Cc2ccc(OCC(=O)O)cc2)NC(=O)[C@H]([C@@H](C)CC)NC1=O [Lu-C-34] ({CH2CO}-[NMeK]([His-DOTA])[NMeI]D[NMeQ][Phe(4-COOH)]IIY(Carboxymethyl)[NMeAla(isoquinolin-7-yl)]G[3Pal(6-Ph)][NMeC]-NH2; thioether N-12) | 0.8 |
| CC[C@H](C)[C@@H]1NC(=O)[C@H]([C@@H](C)OC)NC(=O)[C@H](Cc2ccc(C(=O)O)cc2)NC(=O)[C@H](CCC(N)=O)N(C)C(=O)[C@H](CC(=O)O)NC(=O)[C@H](CCOC)N(C)C(=O)[C@H](CCC(N)=O)N(C)C(=O)CSC[C@@H](C(N)=O)N(C)C(=O)[C@H](Cc2ccc(-c3ccccc3)nc2)NC(=O)CNC(=O)[C@H](Cc2ccc3ccccc3c2)N(C)C(=O)[C@H](Cc2ccc(CNC(=O)N3CCN(CC(=O)O)CC3)cc2)NC1=O [Conjugate 2-20] ({CH2CO}-[NMeQ][NMehSer](Me)D[NMeQ][Phe(4-COOH)]T(Me)I[Phe(4-CH2NH2)]([CO-Piperazinyl(4-CH2COOH)])[NMe2Nal]G[3Pal(6-Ph)][NMeC]-NH2; thioether N-12) | 0.7 |
| CC[C@H](C)[C@@H]1NC(=O)[C@H]([C@@H](C)OC)NC(=O)[C@H](Cc2ccc(C(=O)O)cc2)NC(=O)[C@H](CCC(N)=O)N(C)C(=O)[C@H](CC(=O)O)NC(=O)[C@H](CCOC)N(C)C(=O)[C@H](CCC(N)=O)N(C)C(=O)CSC[C@@H](C(N)=O)N(C)C(=O)[C@H](Cc2ccc(-c3ccccc3)nc2)NC(=O)CNC(=O)[C@H](Cc2ccc3ccccc3c2)N(C)C(=O)[C@H](Cc2ccc(OCC(=O)N3CCN(CC(=O)O)CC3)cc2)NC1=O [Conjugate 2-22] ({CH2CO}-[NMeQ][NMehSer](Me)D[NMeQ][Phe(4-COOH)]T(Me)IY(CH2CON(CH2CH2)2NCH2COOH)[NMe2Nal]G[3Pal(6-Ph)][NMeC]-NH2; thioether N-12) | 0.8 |

These molecules were tested against T1, Human Glypican3-Fc (ACRO Biosystems, GP3-H5258) (human, UniProt P51654 25-559) (assay: SPR (Biacore T200), Method B-2: human Glypican3-Fc captured by anti-human Fc on CM3 chip, peptide as analyte). Details: not given.
T1 construct: Bought fusion protein, captured in Methods B-2, B-3 and B-4; Catalogue number is printed only in Method B-2; not shown: Fc part of the bought fusion
Protocol: as §1, with “After that, 5 serial dilution series (100 nM, 50 nM, 25 nM, 10 nM, 5 nM) of peptide solutions were prepared.” left out
The obtained data by Method B-1, Method B-2, Method B-3 and Method B-4 were analyzed by follow. Single Cycle Kinetics was used as the kinetics evaluation model, and curve fitting was performed using Biacore T200 Evaluation Software Version 3.0 (Cytiva).

| Molecule | Kd [nM] |
| --- | --- |
| B1 | 1.5 |
| {CH2CO}-[NMeK](DOTA‑Lu″)[MeHseMe(3)]D[NMeQ][Phe(4-COOH)]II[Phe(4-CH2COOH)][NMe2Nal]G[Phe(4-(1-Me-pyrazol-4-yl))][NMeC]-NH2 (thioether N-12) [Lu-C-22] | 1.99 |
| {CH2CO}-[NMeQ][NMeQ]D[NMeK](DOTA‑Lu″)[Phe(4-COOH)]II[Phe(4-CH2COOH)][NMe2Nal]G[Phe(4-(1-Me-pyrazol-4-yl))][NMeC]-NH2 (thioether N-12) [Lu-C-26] | 2.52 |
